Source: patent publication US6455250B1, “Endonuclease compositions and methods of use” (The Regents of the University of California, priority 1997, dated 2002)
Entries after “also recorded” stand apart in the source; their conditions may differ. Values belong to the molecule of their own block, whether it stands above or below them.

Tests used:
Endo-SR = target: T1, Endo-SR (Mus musculus, UniProt P56542); assay: Effect of M^2+ species and EDTA on murine Endo-SR activity (Example 1, FIG. 3B); format: biochemical
T1 construct: All nuclease assays were performed with Fraction IV enzyme (see below) as the source for Endo-SR activity, unless otherwise specified; endogenous in cells; host or cells: murine 38B9 pre-B cell line, nuclear extract, chromatographic Fraction IV (BioRex 70, 300 mM NaCl step)
T1 sequence (P56542 20-353): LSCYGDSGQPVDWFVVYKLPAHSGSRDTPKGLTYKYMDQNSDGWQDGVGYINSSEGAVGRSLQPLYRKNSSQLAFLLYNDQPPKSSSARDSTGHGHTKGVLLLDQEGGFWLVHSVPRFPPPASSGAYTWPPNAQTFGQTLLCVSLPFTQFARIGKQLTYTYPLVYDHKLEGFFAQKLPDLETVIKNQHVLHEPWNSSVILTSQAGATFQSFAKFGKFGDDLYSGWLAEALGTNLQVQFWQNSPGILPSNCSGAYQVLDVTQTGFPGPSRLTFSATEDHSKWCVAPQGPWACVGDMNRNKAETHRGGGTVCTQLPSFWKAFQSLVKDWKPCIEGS
Method: FIG. 3B. Effect of M^2+ species on Endo-SR activity. Nuclease assays were performed as previously described but with varied concentrations of different M^2+ species (or EDTA) replacing the standard (5 mM Mg^2+) assay condition. Activity values shown are expressed as percentages of an activity detected in a control assay (0 μM) containing no added M^2+ species.
Endonuclease assays were conducted in 10 μl reaction volumes containing 10 mM bis-Tris (pH6.5), 5 mM MgCl2, ˜250 pmoles of an end-labeled (^32P) DNA substrate, 1 μg of calf-thymus DNA, and 1 μl of an active Endo-SR fraction. […] All nuclease assays were performed with Fraction IV enzyme (see below) as the source for Endo-SR activity, unless otherwise specified. Nuclease assays performed for biochemical analysis of Endo-SR activity were conducted as described except for the addition or substitution of the test material. Reactions were incubated at 37° C. for 30 min, then mixed with an equal volume of formamide dye (Ausubel et al., 1987) and heated to 95° C. for 5 min prior to electrophoresis on an appropriate percentage (8-15%) sequencing gel. After electrophoresis, these gels were transferred to Whatman paper, dried, and exposed to film for 12-48 h. All detected cleavage products were compared to adjacent Maxam-Gilbert sequencing reactions, and adjusted one nucleotide 3′ to compensate for the removed base (Ausubel et al., 1987). After autoradiographic analysis, endonuclease activity was assayed by scintillation counting of intact substrate and specific cleavage products excised from the dried gel. End-labeled DNA substrates were prepared according to previously described methods (Hope et al., 1986).

bovine Endo-SR = target: T2, bovine Endo-SR (Bos taurus, UniProt P56541); assay: Effect of M^2+ cofactors and EDTA on bovine Endo-SR activity (FIG. 2B); format: biochemical; conditions: ≦50 μM
T2 construct: Nuclear extracts for enzyme purification were generated from bovine spleen; from tissue; host or cells: bovine spleen nuclear extract, Fraction V (Superose-12)
T2 sequence (P56541 20-365): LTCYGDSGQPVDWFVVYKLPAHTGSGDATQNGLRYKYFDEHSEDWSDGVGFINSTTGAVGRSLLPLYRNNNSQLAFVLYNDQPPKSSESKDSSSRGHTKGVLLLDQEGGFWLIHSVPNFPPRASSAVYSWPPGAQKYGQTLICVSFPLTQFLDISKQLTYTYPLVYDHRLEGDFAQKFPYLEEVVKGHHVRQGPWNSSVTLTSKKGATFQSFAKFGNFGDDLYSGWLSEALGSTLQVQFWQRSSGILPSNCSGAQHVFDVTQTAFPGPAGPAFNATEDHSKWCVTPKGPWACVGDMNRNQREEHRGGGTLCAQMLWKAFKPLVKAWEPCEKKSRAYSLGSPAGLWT
Method: (§1) FIG. 2B. Effect of various common divalent metal cation (M^2+) species on Endo-SR activity. Nuclease reaction buffer used in these assays contained no Mg^2+, and nuclease reactions were adjusted to various M or EDTA concentrations. Nuclease assays performed with supplemental M^2+ or EDTA were pre-incubated for 30 min on ice prior to addition of the DNA substrate. Specific endonuclease activity values detected in these assays were normalized against nuclease reactions, which contained no supplemental M^2+ or EDTA, and expressed as percentages of this reaction activity. Bovine and murine enzyme activities are represented by open and closed symbols, respectively.
(§2) Endo-SR activity was assayed in 10 μl reactions containing 50 mM sodium acetate (pH 5.5), ˜150 mM NaCl, 0.5 mM MgCl2, ˜250 fmoles of end-labeled DNA substrate (see below), 1 μg sheared salmon sperm DNA, and 1 μl of a diluted Endo-SR fraction. All reactions performed with bovine Endo-SR used Fraction V material (Table 2). Murine Endo-SR used in these assays was purified essentially as previously described (Lyon et al., 1996). All nuclease assays were incubated at 37° C. for 30 min, then mixed with 10 μl of formamide dye and denatured at 95° C. for 5 min prior to size-fractionation on standard sequencing gels. Endo-SR activity values (fmol/min) were determined by quantitation of the radioactivity present in specific nuclease cleavage products and intact substrate (negative control) excised from the dried gel (Lyon et al., 1996). Nuclease assays used to characterize the activity parameters of murine and bovine Endo-SR were performed essentially as previously described (Lyon et al., 1996).

murine Endo-SR = target: T3, murine Endo-SR (Mus musculus, UniProt P56542); assay: Effect of M^2+ cofactors and EDTA on murine Endo-SR activity (Example 2, FIG. 2B); format: biochemical; conditions: ≦50 μM
T3 construct: Nuclease assays were performed with purified bovine nuclease (Fraction V) and partially purified murine Endo-SR (Lyon et al., 1996); endogenous in cells
T3 sequence (P56542 20-353): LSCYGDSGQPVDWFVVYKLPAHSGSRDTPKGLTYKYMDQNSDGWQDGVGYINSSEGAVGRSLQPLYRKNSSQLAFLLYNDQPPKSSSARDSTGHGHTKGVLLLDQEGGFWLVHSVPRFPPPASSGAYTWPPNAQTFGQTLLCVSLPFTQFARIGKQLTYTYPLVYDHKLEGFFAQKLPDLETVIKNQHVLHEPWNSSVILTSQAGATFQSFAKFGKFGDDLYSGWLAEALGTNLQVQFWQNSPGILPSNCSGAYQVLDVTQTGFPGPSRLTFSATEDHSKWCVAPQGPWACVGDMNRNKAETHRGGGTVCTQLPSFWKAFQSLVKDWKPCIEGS
Method: as §1, §2

switch recombination = conditions: without demonstrably affecting cell proliferation or CH gene transcription; Loh et al., 1994a, 1995; cited from earlier work
[1] = target: the molecule itself; assay: native size exclusion chromatography (~35 000) compared with SDS-PAGE (Mr ~32 000)

inhibition of Endo-SR activity (Endo-SR; 50 μM): ~50%
inhibition of Endo-SR activity (Endo-SR; 500 μM): ~95%
effect on nuclease activity at low concentrations (bovine Endo-SR): significant degree of enzyme inhibition
effect on nuclease activity at low concentrations (murine Endo-SR): significant degree of enzyme inhibition
Molecule: [Zn+2] [Zn^2+]

effect on nuclease activity at low concentrations (bovine Endo-SR): significant degree of enzyme inhibition
effect on nuclease activity at low concentrations (murine Endo-SR): significant degree of enzyme inhibition
Molecule: [Mg+2] [Mg^2+]
effect on Endo-SR activity (Endo-SR; 500 μM): significantly enhanced; also recorded: maximal activity

effect on Endo-SR activity (Endo-SR; 500 μM): significantly enhanced
Molecule: [Ca+2] [Ca^2+]

Molecule: O=C([O-])c1cc(=O)c2c(OCC(O)COc3cccc4oc(C(=O)[O-])cc(=O)c34)cccc2o1.[Na+].[Na+] [disodium cromoglycolate]
effect on switch rearrangement (switch recombination): dramatically repress switch rearrangement

inhibition of Endo-SR activity (Endo-SR; 5 mM): ~40%
effect on nuclease activity at low concentrations (bovine Endo-SR): relatively resistant
effect on nuclease activity at low concentrations (murine Endo-SR): relatively resistant
Molecule: O=C(O)CN(CCN(CC(=O)O)CC(=O)O)CC(=O)O [EDTA]
effect on Endo-SR activity (Endo-SR; 50 mM): completely inhibited; also recorded: complete inhibition

Molecule: CCCc1c2oc(C(=O)O)cc(=O)c2cc2c(=O)cc(C(=O)O)n(CC)c12 [nedocromil sodium]
effect on switch rearrangement (switch recombination): dramatically repress switch rearrangement

B1: purified bovine Endo-SR (Fraction V, from bovine spleen nuclear extract) (enzyme, UniProt P56541 20-365, looked up)
chain: LTCYGDSGQPVDWFVVYKLPAHTGSGDATQNGLRYKYFDEHSEDWSDGVGFINSTTGAVGRSLLPLYRNNNSQLAFVLYNDQPPKSSESKDSSSRGHTKGVLLLDQEGGFWLIHSVPNFPPRASSAVYSWPPGAQKYGQTLICVSFPLTQFLDISKQLTYTYPLVYDHRLEGDFAQKFPYLEEVVKGHHVRQGPWNSSVTLTSKKGATFQSFAKFGNFGDDLYSGWLSEALGSTLQVQFWQRSSGILPSNCSGAQHVFDVTQTAFPGPAGPAFNATEDHSKWCVTPKGPWACVGDMNRNQREEHRGGGTLCAQMLWKAFKPLVKAWEPCEKKSRAYSLGSPAGLWT
notes: Native enzyme purified to homogeneity; also called bovine Endo-SR nuclease; Mr ~32 000 protein species
binding result [1]: no binding
